pKi: −log10 of the molar value. Counter-ions that a name gives are not always drawn.
Columns and labels:
conscious beagle dogs = assay: In vivo uroselectivity study: phenylephrine response on MAP and IUP; set-up: species or system dog; settings: 3 μg/kg p.o.
Text: In order to assess the uroselectivity in vivo, the effects of these compounds were studied on mean arterial pressure (MAP) and intraurethral pressure (UP) in conscious beagle dogs as per the method of Brune et al. (Pharmacol., 1996, 53:356). Briefly, male dogs were instrumented for chronic continuous measurement of arterial blood pressure by implanting a telemetry transmitter (TL11M2-D70-PCT, Data Sci. International, St. Paul, Minn. USA) into the femoral artery, two weeks prior to the study. During the recovery period, the animal was acclimatized to stay in the sling restraint. On the day of testing, overnight fasted animal was placed in the sling restraint. A Swan-Ganz. Balloon tipped catheter was introduced into the urethra at the level of prostate and the balloon was inflated (Brune. et. al. 1996). After recording the base line readings, effect of 16 μg/kg, phenylephrine (i.v.) on MAP and IUP was recorded. The response of phenylephrine to MAP and […] were recorded at 0.5, 1, 2, 3, 4, 6, 9 and 24 hours after the oral administration of vehicle or the test drug. The changes in MAP were recorded on line using Dataquest Software (Data Sci. International, St. Paul, Minn. USA). The change in phenylephrine response on […] administration after the test drug administration was calculated as percent change of that of control values. Area under curve was calculated, and the ratio of the values for MAP and IUP was used for calculating the uroselectivity (Table III).

α1A adrenoceptor = target: T1, α1A adrenoceptor (Rattus norvegicus, UniProt P43140); assay: Radioligand binding, [3H] prazosin displacement, rat submaxillary membranes; settings: for pKi: [3H] prazosin displacement, rat submaxillary membranes, read-out: Affinity (Ki) α1A (Rat Submaxillary); for α1B/α1A: ratio of binding affinities, rat liver / rat submaxillary
T1 construct: from tissue; host or cells: rat submaxillary gland membranes
T1 sequence (P43140 1-466): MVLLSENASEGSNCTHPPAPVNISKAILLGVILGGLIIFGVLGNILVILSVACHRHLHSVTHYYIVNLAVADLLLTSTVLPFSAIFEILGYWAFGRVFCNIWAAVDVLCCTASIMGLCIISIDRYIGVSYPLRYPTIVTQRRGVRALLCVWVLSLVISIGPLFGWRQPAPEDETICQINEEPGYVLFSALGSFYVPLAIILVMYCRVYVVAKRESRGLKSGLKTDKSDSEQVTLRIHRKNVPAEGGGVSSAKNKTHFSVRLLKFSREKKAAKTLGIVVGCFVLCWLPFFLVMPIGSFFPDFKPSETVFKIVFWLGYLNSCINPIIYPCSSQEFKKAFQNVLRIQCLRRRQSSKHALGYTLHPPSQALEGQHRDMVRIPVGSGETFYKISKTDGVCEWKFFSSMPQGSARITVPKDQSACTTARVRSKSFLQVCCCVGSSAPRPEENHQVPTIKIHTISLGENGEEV
Procedure, shortened: (§1)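 Displacement of [3H]prazosin measured by filtration and counting, with Ki from IC50 via Cheng–Prusoff and nonspecific binding set by 300 nM prazosin. Native rat submaxillary (α1A) or liver (α1B) membranes, 150-250 μg protein, 1 h at 24-25° C in Tris/EDTA pH 7.4.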

α1B adrenoceptor = target: T2, α1B adrenoceptor (Rattus norvegicus, UniProt P15823); assay: Radioligand binding, [3H] prazosin displacement, rat liver membranes; settings: read-out: Affinity (Ki) α1B (Rat Liver)
T2 construct: from tissue; host or cells: rat liver membranes
T2 sequence (P15823 1-515): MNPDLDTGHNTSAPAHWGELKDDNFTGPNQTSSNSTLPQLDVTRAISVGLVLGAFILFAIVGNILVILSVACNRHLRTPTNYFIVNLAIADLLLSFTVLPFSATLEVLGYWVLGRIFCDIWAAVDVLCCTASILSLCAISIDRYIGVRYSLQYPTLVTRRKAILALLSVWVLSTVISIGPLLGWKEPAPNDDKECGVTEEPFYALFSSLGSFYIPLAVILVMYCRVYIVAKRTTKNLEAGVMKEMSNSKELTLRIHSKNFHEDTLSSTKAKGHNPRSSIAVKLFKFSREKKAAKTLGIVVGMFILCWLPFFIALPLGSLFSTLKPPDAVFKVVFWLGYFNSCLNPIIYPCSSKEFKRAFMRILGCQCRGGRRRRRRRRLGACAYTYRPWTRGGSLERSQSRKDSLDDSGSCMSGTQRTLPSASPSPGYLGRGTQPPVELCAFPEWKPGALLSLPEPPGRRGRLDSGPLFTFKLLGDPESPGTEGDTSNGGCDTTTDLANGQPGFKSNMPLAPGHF
Procedure, shortened: as §1

[1] = target: T3, α1A adrenoceptor (prostate) (Rattus norvegicus, UniProt P43140); assay: In vitro functional assay, isolated prostate, phenylepinephrine contraction; format: cell-based; settings: for Selectivity α1B/α1A / Selectivity α1D/α1A: functional, from pKB; for Kb: rat prostate, phenylepinephrine, read-out: α Adrenoceptor Subtype (pKB) α1A (converted)
T3 construct: from tissue; host or cells: isolated prostate tissue
T3 sequence (P43140 1-466): T1 sequence (P43140 1-466)
Procedure, shortened: (§2)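 Rat aorta, spleen and prostate strips from urethane-anaesthetised male Wistar rats in Krebs-Henseleit at 37 °C (95% O2/5% CO2), 2 g or 1 g resting tension, 2 h equilibration. Norepinephrine (aorta) or phenylephrine (spleen, prostate) contraction curves run without and with compound at […]; antagonist affinity given as pKB.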

[2] = target: T4, α1B adrenoceptor (spleen) (Rattus norvegicus, UniProt P15823); assay: In vitro functional assay, isolated spleen, phenylepinephrine contraction; format: cell-based; settings: read-out: α Adrenoceptor Subtype (pKB) α1B (converted)
T4 construct: Isolated tissues were mounted in organ bath containing Krebs Henseleit buffer; from tissue; host or cells: isolated rat spleen
T4 sequence (P15823 1-515): T2 sequence (P15823 1-515)
Text: In order to study selectivity of action of these compounds towards different a-adrenoceptor subtypes, the ability of these compounds to antagonise (α1D) prostate (α1A) and spleen (α1B) was studied. Aorta and spleen tissues were isolated from urethane anaesthetized (1.5 g/kg) male wister rats. Isolated tissues were mounted in organ bath containing Krebs Henseleit buffer of the following composition (mM): NaCl 118; KCl 4.7; CaCl2 2.5; MgSO4 7H2O 1.2; NaHCO3 25; KH2PO4 1.2; glucose 11.5. Buffer was maintained at 37° C. and aereated with a mixture of 95% O2 and 5% CO2. A resting tension of 2 g (aorta) or 1 g (spleen and prostate) was applied to tissues. Contractile response was monitored using a force displacement transducer and recorded on chart recorders. Tissues were allowed to equilibrate for 2 hours. At the end of equilibration period, concentration response curves to norepinephrine (aorta) and phenylepinephrine (spleen and prostate) were obtained in the absence and presence of tested compound (at concentration of […]). Antagonist affinity was calculated and expressed as pKB values in Table II.

α1D adrenoceptor (aorta) = target: T5, α1D adrenoceptor (aorta) (Rattus norvegicus, UniProt P23944); assay: In vitro functional assay, isolated aorta, norepinephrine contraction; format: cell-based; settings: read-out: α Adrenoceptor Subtype (pKB) α1D (converted)
T5 construct: Isolated tissues were mounted in organ bath containing Krebs Henseleit buffer; from tissue; host or cells: isolated rat aorta
T5 sequence (P23944 1-561): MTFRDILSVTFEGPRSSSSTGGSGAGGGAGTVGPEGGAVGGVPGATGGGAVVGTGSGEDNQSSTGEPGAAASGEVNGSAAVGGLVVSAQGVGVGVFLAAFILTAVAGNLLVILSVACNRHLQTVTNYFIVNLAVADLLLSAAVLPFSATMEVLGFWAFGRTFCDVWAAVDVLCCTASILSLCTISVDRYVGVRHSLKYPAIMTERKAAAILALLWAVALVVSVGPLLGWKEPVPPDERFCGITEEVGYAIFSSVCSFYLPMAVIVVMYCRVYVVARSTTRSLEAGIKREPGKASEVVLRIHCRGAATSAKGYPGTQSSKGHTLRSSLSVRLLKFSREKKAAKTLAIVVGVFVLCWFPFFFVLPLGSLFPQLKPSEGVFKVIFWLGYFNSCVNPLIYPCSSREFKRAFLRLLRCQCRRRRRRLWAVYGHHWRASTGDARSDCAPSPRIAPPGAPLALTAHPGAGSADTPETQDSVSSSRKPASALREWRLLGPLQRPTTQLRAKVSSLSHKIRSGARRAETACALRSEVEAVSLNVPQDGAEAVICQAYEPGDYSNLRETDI
Procedure, shortened: as §2

α1-adrenoceptor = settings: background statement; cited from earlier work
[3] = percent change of phenylephrine response over 24 hours

Row | Compound | melting point [°C] | pKi (α1A adrenoceptor) | α1B/α1A (α1A adrenoceptor) | pKi (α1B adrenoceptor) | Selectivity α1B/α1A [1] | Selectivity α1D/α1A [1] | Kb [1] [nM] | Kb [2] [nM] | Kb (α1D adrenoceptor (aorta)) [nM] | further results
1 | CC(=O)OC1C=CCC2C(=O)N(CCCN3CCN(c4ccccc4OC(C)C)CC3)C(=O)C12 (stereo not drawn) (as salt: hydrochloride) [Compound No. 40, 2-[3-{4-(2-Isopropoxyphenyl)piperazin-1-yllpropyl]4-acetoxy-3a,4,7,7a-tetrahydro-1H-isoindole-1,3(2H)-dione hydrochloride] | 224 to 227 |  |  |  |  |  |  |  |  | 
2 | CCOc1ccccc1OCCN[C@H](C)Cc1ccc(OC)c(S(N)(=O)=O)c1 (racemic) [Tamsulosin (SR), Tamsulosin, reference compound] |  |  |  |  |  |  |  |  |  | Uroselectivity Ratio IUP/MAP (conscious beagle dogs): 1.47; Area Under Curve IUP (conscious beagle dogs; [3]): 592; Area Under Curve MAP (conscious beagle dogs; [3]): 868
3 | CC(C)Oc1ccccc1N1CCN(CCCN2C(=O)C3CC=CC(O)C3C2=O)CC1.Cl (stereo not drawn) [Compound No. 41, 2-[3-{4-(2-Isopropoxyphenyl)piperazin-1-yl}propyl]-4-hydroxy-3a,4,7,7a-tetrahydro-1H-isoindole-1,3(2H)-dione hydrochloride] | 186 to 190 | 9.52 | 350 | 6.98 | 132 | 4.8 | 0.513 | 67.6 | 2.45 | 
4 | CC(=O)OC1C=CC(OC(C)=O)C2C(=O)N(CCCN3CCN(c4ccccc4OC(C)C)CC3)C(=O)C12.Cl (stereo not drawn) [Compound No. 73, 2-[3-{4-(2-Isopropoxyphenyl)piperazin-1-yl}propyl]-4,7-diacetoxy-3a,4,7,7a-tetrahydro-1H-isoindole-1,3(2H)-dione hydrochloride] | 176 to 177 | 8.07 | 23 | 6.72 |  |  |  |  |  | 
5 | CCOc1ccccc1N1CC[N+]([O-])(CCCN2C(=O)C3CC=CCC3C2=O)CC1 (stereo not drawn) [compound 04, 2-[3-{4-(2-Ethoxyphenyl)piperazin-1-yl, 1-N-oxide}propyl]-3a,4,7,7a-tetrahydro-1H-isoindole-1,3(2H)-dione] | 75 to 80 | 7.66 | >45 | < 6.00 | 2.9 | 33 | 2.45 | 7.08 | 81.3 | 
6 | COc1cc2nc(N3CCN(C(=O)c4ccco4)CC3)nc(N)c2cc1OC [prazosin] |  |  |  |  |  |  |  |  |  | α1-adrenergic blocking activity (pKi) (α1-adrenoceptor): > 8
